Measured values as given in ChEMBL document CHEMBL3611970, “Synthesis and evaluation of isatin-β-thiosemicarbazones as novel agents against antibiotic-resistant Gram-positive bacterial species” (2015).
Converted amounts (≈) assume the structure as drawn.

How the values were obtained:
Type in all cases: functional
Enterococcus faecalis [1] = test: Antimicrobial activity against Enterococcus faecalis VRE-309 after 16 hrs by broth microdilution method; settings: VRE-309, 16 h
Staphylococcus aureus [2] = test: Antimicrobial activity against methicillin-resistant Staphylococcus aureus Chaoyang clinical isolate after 16 hrs by broth microdilution method
Staphylococcus aureus [3] = test: Antimicrobial activity against methicillin-resistant Staphylococcus aureus 309-4 clinical isolate after 16 hrs by broth microdilution method; settings: 309-4, 16 h
Staphylococcus aureus [4] = test: Antimicrobial activity against Staphylococcus aureus ATCC 6538 after 16 hrs by broth microdilution method; settings: ATCC 6538, 16 h
Staphylococcus aureus [5] = test: Antimicrobial activity against methicillin-resistant Staphylococcus aureus 6-42 clinical isolate after 16 hrs by broth microdilution method; settings: 6-42, 16 h
Pseudomonas aeruginosa = test: Antimicrobial activity against Pseudomonas aeruginosa PAO1 after 16 hrs by broth microdilution method; settings: PAO1, 16 h
Enterococcus faecalis [6] = test: Antimicrobial activity against vancomycin-susceptible Enterococcus faecalis after 16 hrs by broth microdilution method
Klebsiella pneumoniae = test: Antimicrobial activity against Klebsiella pneumoniae KP-249 clinical isolate after 16 hrs by broth microdilution method; settings: KP-249, 16 h
Staphylococcus aureus [7] = test: Antimicrobial activity against methicillin-resistant Staphylococcus aureus 8-24 clinical isolate after 16 hrs by broth microdilution method; settings: 8-24, 16 h
Staphylococcus aureus [8] = test: Antimicrobial activity against methicillin-resistant Staphylococcus aureus 309-7 clinical isolate after 16 hrs by broth microdilution method; settings: 309-7, 16 h
Staphylococcus aureus [9] = test: Antimicrobial activity against methicillin-resistant Staphylococcus aureus 309-3 clinical isolate after 16 hrs by broth microdilution method; settings: 309-3, 16 h
Staphylococcus aureus [10] = test: Antimicrobial activity against methicillin-resistant Staphylococcus aureus 8-21 clinical isolate after 16 hrs by broth microdilution method; settings: 8-21, 16 h
Staphylococcus aureus [11] = test: Antimicrobial activity against methicillin-resistant Staphylococcus aureus 309-6 clinical isolate after 16 hrs by broth microdilution method; settings: 309-6, 16 h
Staphylococcus aureus [12] = test: Antimicrobial activity against methicillin-resistant Staphylococcus aureus 309-1 clinical isolate after 16 hrs by broth microdilution method; settings: 309-1, 16 h
Staphylococcus aureus [13] = test: Antimicrobial activity against methicillin-resistant Staphylococcus aureus 309-8 clinical isolate after 16 hrs by broth microdilution method; settings: 309-8, 16 h
Bacillus spizizenii = test: Antimicrobial activity against Bacillus subtilis ATCC 6633 after 16 hrs by broth microdilution method; settings: ATCC 6633, 16 h
Staphylococcus aureus [14] = test: Antimicrobial activity against methicillin-resistant Staphylococcus aureus 6281 clinical isolate after 16 hrs by broth microdilution method; settings: Staphylococcus aureus, 6281, 16 h

Compound	MIC (Enterococcus faecalis [1]) [µg/mL]	MIC (Staphylococcus aureus [2]) [µg/mL]	MIC (Staphylococcus aureus [3]) [µg/mL]	MIC (Staphylococcus aureus [4]) [µg/mL]	MIC (Staphylococcus aureus [5]) [µg/mL]	MIC (Pseudomonas aeruginosa) [µg/mL]	MIC (Enterococcus faecalis [6]) [µg/mL]	MIC (Klebsiella pneumoniae) [µg/mL]	MIC (Staphylococcus aureus [7]) [µg/mL]	MIC (Staphylococcus aureus [8]) [µg/mL]	MIC (Staphylococcus aureus [9]) [µg/mL]	MIC (Staphylococcus aureus [10]) [µg/mL]	MIC (Staphylococcus aureus [11]) [µg/mL]	MIC (Staphylococcus aureus [12]) [µg/mL]	MIC (Staphylococcus aureus [13]) [µg/mL]	MIC (Bacillus spizizenii) [µg/mL]	MIC (Staphylococcus aureus [14]) [µg/mL]
COc1ccc(NC(=S)N/N=C2\C(=O)Nc3c(Cl)cccc32)cc1	> 100	1.56 (≈ 4.32 µM)	1.56 (≈ 4.32 µM)	6.25 (≈ 17.3 µM)	1.56 (≈ 4.32 µM)	> 100	> 100	> 100	3.12 (≈ 8.65 µM)	1.56 (≈ 4.32 µM)	3.12 (≈ 8.65 µM)	3.12 (≈ 8.65 µM)	6.25 (≈ 17.3 µM)	3.12 (≈ 8.65 µM)	3.12 (≈ 8.65 µM)	≤ 0.78	6.25 (≈ 17.3 µM)
COc1ccccc1NC(=S)N/N=C1\C(=O)Nc2c(F)cccc21	> 100	> 100	> 100	> 100	> 100	> 100	> 100	> 100	> 100	> 100	> 100	> 100	> 100	> 100	> 100	> 100	> 100
Cc1ccc(NC(=S)N/N=C2\C(=O)Nc3c(Br)cccc32)cc1	> 100	0.39 (≈ 1 µM)	0.78 (≈ 2 µM)	1.56 (≈ 4.01 µM)	0.78 (≈ 2 µM)	> 100	> 100	> 100	1.56 (≈ 4.01 µM)	0.78 (≈ 2 µM)	0.78 (≈ 2 µM)	0.78 (≈ 2 µM)	1.56 (≈ 4.01 µM)	0.78 (≈ 2 µM)	0.78 (≈ 2 µM)	≤ 0.78	3.12 (≈ 8.01 µM)
O=C1Nc2c(I)cccc2/C1=N/NC(=S)Nc1ccc(Br)cc1	3.12 (≈ 6.23 µM)	0.78 (≈ 1.56 µM)	1.56 (≈ 3.11 µM)	3.12 (≈ 6.23 µM)	1.56 (≈ 3.11 µM)	> 100	12.5 (≈ 24.9 µM)	> 100	3.12 (≈ 6.23 µM)	1.56 (≈ 3.11 µM)	3.12 (≈ 6.23 µM)	3.12 (≈ 6.23 µM)	6.25 (≈ 12.5 µM)	1.56 (≈ 3.11 µM)	3.12 (≈ 6.23 µM)	≤ 0.78	3.12 (≈ 6.23 µM)
O=C1Nc2c(Cl)cccc2/C1=N/NC(=S)Nc1ccccc1	3.12 (≈ 9.43 µM)	0.78 (≈ 2.36 µM)	1.56 (≈ 4.72 µM)	1.56 (≈ 4.72 µM)	3.12 (≈ 9.43 µM)	> 100	6.25 (≈ 18.9 µM)	> 100	1.56 (≈ 4.72 µM)	0.78 (≈ 2.36 µM)	6.25 (≈ 18.9 µM)	3.12 (≈ 9.43 µM)	6.25 (≈ 18.9 µM)	6.25 (≈ 18.9 µM)	1.56 (≈ 4.72 µM)	≤ 0.78	1.56 (≈ 4.72 µM)
Cc1ccccc1NC(=S)N/N=C1\C(=O)Nc2c(Br)cccc21	6.25 (≈ 16.1 µM)	0.78 (≈ 2 µM)	1.56 (≈ 4.01 µM)	1.56 (≈ 4.01 µM)	0.78 (≈ 2 µM)	> 100	12.5 (≈ 32.1 µM)	> 100	1.56 (≈ 4.01 µM)	0.78 (≈ 2 µM)	1.56 (≈ 4.01 µM)	1.56 (≈ 4.01 µM)	1.56 (≈ 4.01 µM)	1.56 (≈ 4.01 µM)	1.56 (≈ 4.01 µM)	≤ 0.78	3.12 (≈ 8.01 µM)
O=C1Nc2c(Cl)cccc2/C1=N/NC(=S)Nc1cccc(Cl)c1	1.56 (≈ 4.27 µM)	0.78 (≈ 2.14 µM)	0.78 (≈ 2.14 µM)	1.56 (≈ 4.27 µM)	0.78 (≈ 2.14 µM)	> 100	3.12 (≈ 8.54 µM)	> 100	1.56 (≈ 4.27 µM)	0.78 (≈ 2.14 µM)	1.56 (≈ 4.27 µM)	1.56 (≈ 4.27 µM)	3.12 (≈ 8.54 µM)	1.56 (≈ 4.27 µM)	1.56 (≈ 4.27 µM)	≤ 0.78	1.56 (≈ 4.27 µM)
O=C1Nc2c(F)cccc2/C1=N/NC(=S)Nc1ccc(F)cc1	3.12 (≈ 9.39 µM)	0.78 (≈ 2.35 µM)	1.56 (≈ 4.69 µM)	1.56 (≈ 4.69 µM)	1.56 (≈ 4.69 µM)	> 100	3.12 (≈ 9.39 µM)	> 100	1.56 (≈ 4.69 µM)	1.56 (≈ 4.69 µM)	1.56 (≈ 4.69 µM)	1.56 (≈ 4.69 µM)	3.12 (≈ 9.39 µM)	1.56 (≈ 4.69 µM)	1.56 (≈ 4.69 µM)	1.56 (≈ 4.69 µM)	3.12 (≈ 9.39 µM)
O=C1Nc2c(Cl)cccc2/C1=N/NC(=S)Nc1ccc(Cl)cc1	1.56 (≈ 4.27 µM)	0.39 (≈ 1.07 µM)	0.78 (≈ 2.14 µM)	1.56 (≈ 4.27 µM)	0.78 (≈ 2.14 µM)	> 100	3.12 (≈ 8.54 µM)	> 100	1.56 (≈ 4.27 µM)	0.78 (≈ 2.14 µM)	1.56 (≈ 4.27 µM)	0.78 (≈ 2.14 µM)	1.56 (≈ 4.27 µM)	0.78 (≈ 2.14 µM)	1.56 (≈ 4.27 µM)	≤ 0.78	1.56 (≈ 4.27 µM)
O=C1Nc2c(I)cccc2/C1=N/NC(=S)Nc1ccccc1F	6.25 (≈ 14.2 µM)	0.78 (≈ 1.77 µM)	1.56 (≈ 3.54 µM)	3.12 (≈ 7.09 µM)	0.78 (≈ 1.77 µM)	> 100	12.5 (≈ 28.4 µM)	> 100	1.56 (≈ 3.54 µM)	0.78 (≈ 1.77 µM)	3.12 (≈ 7.09 µM)	1.56 (≈ 3.54 µM)	3.12 (≈ 7.09 µM)	1.56 (≈ 3.54 µM)	1.56 (≈ 3.54 µM)	≤ 0.78	6.25 (≈ 14.2 µM)
O=C1Nc2c(F)cccc2/C1=N/NC(=S)Nc1cccc(Cl)c1	1.56 (≈ 4.47 µM)	0.39 (≈ 1.12 µM)	0.78 (≈ 2.24 µM)	0.78 (≈ 2.24 µM)	0.39 (≈ 1.12 µM)	> 100	1.56 (≈ 4.47 µM)	> 100	0.78 (≈ 2.24 µM)	0.39 (≈ 1.12 µM)	0.78 (≈ 2.24 µM)	0.78 (≈ 2.24 µM)	1.56 (≈ 4.47 µM)	0.78 (≈ 2.24 µM)	0.78 (≈ 2.24 µM)	≤ 0.78	1.56 (≈ 4.47 µM)
Cc1cccc(NC(=S)N/N=C2\C(=O)Nc3c(I)cccc32)c1	3.12 (≈ 7.15 µM)	0.78 (≈ 1.79 µM)	1.56 (≈ 3.58 µM)	3.12 (≈ 7.15 µM)	1.56 (≈ 3.58 µM)	> 100	12.5 (≈ 28.7 µM)	> 100	1.56 (≈ 3.58 µM)	0.78 (≈ 1.79 µM)	3.12 (≈ 7.15 µM)	1.56 (≈ 3.58 µM)	3.12 (≈ 7.15 µM)	1.56 (≈ 3.58 µM)	1.56 (≈ 3.58 µM)	≤ 0.78	6.25 (≈ 14.3 µM)
COc1ccc(NC(=S)N/N=C2\C(=O)Nc3c(Br)cccc32)cc1	> 100	0.78 (≈ 1.92 µM)	1.56 (≈ 3.85 µM)	6.25 (≈ 15.4 µM)	0.78 (≈ 1.92 µM)	> 100	> 100	> 100	1.56 (≈ 3.85 µM)	0.78 (≈ 1.92 µM)	3.12 (≈ 7.7 µM)	1.56 (≈ 3.85 µM)	6.25 (≈ 15.4 µM)	1.56 (≈ 3.85 µM)	1.56 (≈ 3.85 µM)	≤ 0.78	6.25 (≈ 15.4 µM)
O=C1Nc2c(Br)cccc2/C1=N/NC(=S)Nc1ccc(Br)cc1	1.56 (≈ 3.44 µM)	0.39 (≈ 0.859 µM)	0.78 (≈ 1.72 µM)	3.12 (≈ 6.87 µM)	0.78 (≈ 1.72 µM)	> 100	3.12 (≈ 6.87 µM)	> 100	1.56 (≈ 3.44 µM)	0.78 (≈ 1.72 µM)	1.56 (≈ 3.44 µM)	1.56 (≈ 3.44 µM)	1.56 (≈ 3.44 µM)	1.56 (≈ 3.44 µM)	1.56 (≈ 3.44 µM)	1.56 (≈ 3.44 µM)	3.12 (≈ 6.87 µM)
O=C1Nc2c(Br)cccc2/C1=N/NC(=S)Nc1ccc(F)cc1	1.56 (≈ 3.97 µM)	0.39 (≈ 0.992 µM)	0.78 (≈ 1.98 µM)	1.56 (≈ 3.97 µM)	0.78 (≈ 1.98 µM)	> 100	3.12 (≈ 7.93 µM)	> 100	1.56 (≈ 3.97 µM)	0.39 (≈ 0.992 µM)	0.78 (≈ 1.98 µM)	0.78 (≈ 1.98 µM)	1.56 (≈ 3.97 µM)	0.78 (≈ 1.98 µM)	0.78 (≈ 1.98 µM)	≤ 0.78	1.56 (≈ 3.97 µM)
O=C1Nc2c(Br)cccc2/C1=N/NC(=S)Nc1cccc(F)c1	1.56 (≈ 3.97 µM)	0.39 (≈ 0.992 µM)	0.78 (≈ 1.98 µM)	1.56 (≈ 3.97 µM)	0.78 (≈ 1.98 µM)	> 100	3.12 (≈ 7.93 µM)	> 100	0.78 (≈ 1.98 µM)	0.39 (≈ 0.992 µM)	0.78 (≈ 1.98 µM)	0.78 (≈ 1.98 µM)	1.56 (≈ 3.97 µM)	0.78 (≈ 1.98 µM)	0.78 (≈ 1.98 µM)	≤ 0.78	1.56 (≈ 3.97 µM)
COc1cccc(NC(=S)N/N=C2\C(=O)Nc3c(Br)cccc32)c1	> 100	0.78 (≈ 1.92 µM)	1.56 (≈ 3.85 µM)	6.25 (≈ 15.4 µM)	1.56 (≈ 3.85 µM)	> 100	> 100	> 100	1.56 (≈ 3.85 µM)	0.78 (≈ 1.92 µM)	3.12 (≈ 7.7 µM)	1.56 (≈ 3.85 µM)	6.25 (≈ 15.4 µM)	1.56 (≈ 3.85 µM)	3.12 (≈ 7.7 µM)	≤ 0.78	6.25 (≈ 15.4 µM)
Cc1ccc(NC(=S)N/N=C2\C(=O)Nc3c(Cl)cccc32)cc1	3.12 (≈ 9.05 µM)	0.39 (≈ 1.13 µM)	0.78 (≈ 2.26 µM)	1.56 (≈ 4.52 µM)	0.78 (≈ 2.26 µM)	> 100	6.25 (≈ 18.1 µM)	> 100	1.56 (≈ 4.52 µM)	0.78 (≈ 2.26 µM)	0.78 (≈ 2.26 µM)	0.78 (≈ 2.26 µM)	1.56 (≈ 4.52 µM)	0.78 (≈ 2.26 µM)	0.78 (≈ 2.26 µM)	≤ 0.78	1.56 (≈ 4.52 µM)
